Measured values as given in patent US8138175B2, “Heterocyclyl compounds” (Hoffmann-La Roche Inc., priority 2008, dated 2012).
pIC50: −log10 of the molar value.

Each compound was assayed against T1, human chemokine receptor 2 isoform B (Homo sapiens, UniProt P41597) (assay: Calcium mobilization assay). Details: Ca mobilization assay for CCR2; CHOK1-CCR2B-A5 cells; antagonist activity against 20 nM MCP-1; FLIPR, Fluo-4.
T1 construct: host or cells: CHOK1-CCR2B-A5 (CHO-K1) cells
T1 sequence (P41597 1-360 isoform P41597-2): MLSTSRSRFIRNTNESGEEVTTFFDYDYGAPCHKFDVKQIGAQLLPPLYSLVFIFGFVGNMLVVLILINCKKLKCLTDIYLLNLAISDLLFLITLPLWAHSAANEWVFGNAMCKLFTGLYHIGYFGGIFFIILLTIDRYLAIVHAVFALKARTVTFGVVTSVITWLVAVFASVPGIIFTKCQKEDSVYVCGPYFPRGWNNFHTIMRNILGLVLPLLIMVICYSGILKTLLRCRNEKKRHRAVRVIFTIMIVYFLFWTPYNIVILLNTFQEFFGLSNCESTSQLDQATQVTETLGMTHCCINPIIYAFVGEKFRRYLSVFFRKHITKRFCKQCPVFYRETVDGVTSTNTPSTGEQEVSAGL
Assay type: cell-based
Method: Calcium Mobilization Assay
CHOK1-CCR2B-A5 cells (from Euroscreen) stably overexpressing the human chemokine receptor 2 isoform B were cultured in Nutrient Hams F12 medium supplemented with 5% FBS, 100 U/ml penicillin, 100 μg/ml streptomycin, 400 μg/ml G418 and 5 μg/ml puromycin.
For the assay cells were grown overnight in 384-well black clear flat bottom polystyrene plates (Costar) at 37° C. at 5% CO2. After washing with DMEM, 20 mM Hepes, 2.5 mM probenecid, 0.1% BSA (DMEM assay buffer) cells were loaded with 4 μM Fluo-4 in the same DMEM assay buffer for 2 hours at 30° C. Excess dye was removed and cells were washed with DMEM assay buffer. 384-well compound plates were prepared with DMEM assay buffer/0.5% dimethyl sulfoxide with or without various concentrations of test compounds. Usually compounds were tested for agonist and antagonist activity.
Test compounds were added to the assay plate and agonist activity was monitored as fluorescence for 80 seconds with a FLIPR (488 nm excitation; 510-570 nm emission; Molecular Devices). After 20-30 min. of incubation at 30° C., 20 nM MCP-1 (R&D; Roche) was added and fluorescence was monitored again for 80 seconds. Increases in intracellular calcium are reported as maximum fluorescence after agonist exposure minus basal fluorescence before exposure. Antagonist activity is indicated as inhibitor concentration required for 50% inhibition of specific calcium increases.

Structure (SMILES) | pIC50
COC(=O)[C@H](CCN1CCC2(CC2)[C@H](O)C1)N1C[C@@H](C)N(c2ccc(Cl)c(Cl)c2)CCC1=O [Example 65, (S)-2-[(R)-4-(3,4-dichloro-phenyl)-3-methyl-7-oxo-[1,4]diazepan-1-yl]-4-((S)-4-hydroxy-6-aza-spiro[2.5]oct-6-yl)-butyric acid methyl ester] | 7.80
COC(=O)[C@H](CCN1CCC2(CC2)[C@H](O)C1)N1C[C@H](C)N(c2ccc(Cl)c(Cl)c2)CCC1=O [Example 66, (S)-2-[(S)-4-(3,4-dichloro-phenyl)-3-methyl-7-oxo-[1,4]diazepan-1-yl]-4-((S)-4-hydroxy-6-aza-spiro[2.5]oct-6-yl)-butyric acid methyl ester] | 6.26
CC1C(=O)N(CCCN2CCCCC2)CCN1c1ccc(Cl)c(C(F)(F)F)c1 (stereo not shown) [Example 70, 4-(4-Chloro-3-trifluoromethyl-phenyl)-3-methyl-1-(3-piperidin-1-yl-propyl)-piperazin-2-one] | 6.24
CC1C(=O)N(CCCN2CCCCC2)CCN1c1ccc(Cl)c(Cl)c1 (stereo not shown) [Example 71, 4-(3,4-Dichloro-phenyl)-3-methyl-1-(3-piperidin-1-yl-propyl)-piperazin-2-one] | 6.65
C[C@H]1C(=O)N(CCCN2CCCCC2)CCN1c1ccc(Cl)c(Cl)c1 [Example 72, (S)-4-(3,4-Dichloro-phenyl)-3-methyl-1-(3-piperidin-1-yl-propyl)-piperazin-2-one] | 6.51
C[C@H]1C(=O)N(CCCN2CCC3(CC3)[C@H](O)C2)CCN1c1ccc(Cl)c(Cl)c1 [Example 74, (S)-4-(3,4-Dichloro-phenyl)-1-[3-((S)-4-hydroxy-6-aza-spiro[2.5]oct-6-yl)-propyl]-3-methyl-piperazin-2-one] | 8.30
C[C@H]1C(=O)N(CCCN2CCC3(CC3)[C@H](O)C2)CCN1c1ccc(Cl)c(C(F)(F)F)c1 [Example 76, (S)-4-(4-Chloro-3-trifluoromethyl-phenyl)-1-[3-((S)-4-hydroxy-6-aza-spiro[2.5]oct-6-yl)-propyl]-3-methyl-piperazin-2-one] | 8.15
C[C@H]1C(=O)N(CCCN2CCC3(CC3)[C@H](O)C2)CCN1c1ccc(F)c(C(F)(F)F)c1 [Example 78, (S)-4-(4-Fluoro-3-trifluoromethyl-phenyl)-1-[3-((S)-4-hydroxy-6-aza-spiro[2.5]oct-6-yl)-propyl]-3-methyl-piperazin-2-one] | 7.89
C[C@H]1C(=O)N(CCCN2CCC3(CC3)[C@H](O)C2)CCN1c1ccc(F)c(Cl)c1 [Example 79, (S)-4-(3-Chloro-4-fluoro-phenyl)-1-[3-((S)-4-hydroxy-6-aza-spiro[2.5]oct-6-yl)-propyl]-3-methyl-piperazin-2-one] | 7.54
C[C@H]1C(=O)N(CCCN2CCC3(CC3)[C@H](O)C2)CCN1c1ccc(-c2ccccc2)cc1 [Example 80, (S)-4-Biphenyl-4-yl-1-[3-((S)-4-hydroxy-6-aza-spiro[2.5]oct-6-yl)-propyl]-3-methyl-piperazin-2-one] | 6.50
C[C@H]1C(=O)N(CCCN2CCC3(CC3)[C@H](O)C2)CCN1c1ccc2ccccc2c1 [Example 82, (S)-1-[3-((S)-4-Hydroxy-6-aza-spiro[2.5]oct-6-yl)-propyl]-3-methyl-4-naphthalen-2-yl-piperazin-2-one] | 7.14
C[C@H]1C(=O)N(CCCN2CCC3(CC3)[C@H](O)C2)CCN1c1ccc(C(F)(F)F)c(Cl)c1 [Example 83, (S)-4-(3-Chloro-4-trifluoromethyl-phenyl)-1-[3-((S)-4-hydroxy-6-aza-spiro[2.5]oct-6-yl)-propyl]-3-methyl-piperazin-2-one] | 8.70
C[C@H]1C(=O)N(CCCN2CCC3(CC3)[C@H](O)C2)CCN1c1ccc(Cl)c(OC(F)(F)F)c1 [Example 84, (S)-4-(4-Chloro-3-trifluoromethoxy-phenyl)-1-[3-((S)-4-hydroxy-6-aza-spiro[2.5]oct-6-yl)-propyl]-3-methyl-piperazin-2-one] | 7.82
C[C@H]1C(=O)N(CCCN2CCC3(CC3)[C@H](O)C2)CCN1c1ccc(F)c(OC(F)(F)F)c1 [Example 86, (S)-4-(4-Fluoro-3-trifluoromethoxy-phenyl)-1-[3-((S)-4-hydroxy-6-aza-spiro[2.5]oct-6-yl)-propyl]-3-methyl-piperazin-2-one] | 7.48
CC[C@H]1C(=O)N(CCCN2CCC3(CC3)[C@H](O)C2)CCN1c1ccc(Cl)c(Cl)c1 [Example 87, (S)-4-(3,4-Dichloro-phenyl)-3-ethyl-1-[3-((S)-4-hydroxy-6-aza-spiro[2.5]oct-6-yl)-propyl]-piperazin-2-one] | 7.28
CC[C@@H]1C(=O)N(CCCN2CCC3(CC3)[C@H](O)C2)CCN1c1ccc(Cl)c(Cl)c1 [Example 88, (R)-4-(3,4-dichloro-phenyl)-3-ethyl-1-[3-((S)-4-hydroxy-6-aza-spiro[2.5]oct-6-yl)-propyl]-piperazin-2-one] | 6.49
CC1C(=O)N(CCCN2CCC3(CC3)[C@H](O)C2)CCN1c1cccc(I)c1 (stereo partly drawn) [Example 89, 1-[3-((S)-4-Hydroxy-6-aza-spiro[2.5]oct-6-yl)-propyl]-4-(3-iodo-phenyl)-3-methyl-piperazin-2-one] | 7.46
CC1C(=O)N(CCCN2CCC3(CC3)[C@H](O)C2)CCN1c1cccc(-c2ccccc2)c1 (stereo partly drawn) [Example 90, 4-Biphenyl-3-yl-1-[3-((S)-4-hydroxy-6-aza-spiro[2.5]oct-6-yl)-propyl]-3-methyl-piperazin-2-one] | 6.29
C[C@H]1C(=O)N(CCCCN2CCC3(CC3)[C@H](O)C2)CCN1c1ccc(Cl)c(Cl)c1 [Example 94, (S)-4-(3,4-Dichloro-phenyl)-1-[4-((S)-4-hydroxy-6-aza-spiro[2.5]oct-6-yl)-butyl]-3-methyl-piperazin-2-one] | 8.10
C[C@H]1C(=O)N(CCCCN2CCC3(CC3)[C@H](O)C2)CCN1c1cccc(OC(F)(F)F)c1 [Example 95, (S)-1-[4-((S)-4-Hydroxy-6-aza-spiro[2.5]oct-6-yl)-butyl]-3-methyl-4-(3-trifluoromethoxy-phenyl)-piperazin-2-one] | 7.89
C[C@H]1C(=O)N(CCCN2CCC3(CC3)[C@H](O)C2)CCN1c1ccc(C(F)(F)F)cc1 [Example 96, (S)-1-[3-((S)-4-Hydroxy-6-aza-spiro[2.5]oct-6-yl)-propyl]-3-methyl-4-(4-trifluoromethyl-phenyl)-piperazin-2-one] | 7.59
C[C@H]1C(=O)N(C[C@@H](O)CN2CCC3(CC3)[C@H](O)C2)CCN1c1ccc(Cl)c(Cl)c1 [Example 99, (S)-4-(3,4-dichloro-phenyl)-1-[(S)-2-hydroxy-3-((S)-4-hydroxy-6-aza-spiro[2.5]oct-6-yl)-propyl]-3-methyl-piperazin-2-one] | 8.10
C[C@@H]1C(=O)N(C[C@H](O)CN2CCC3(CC3)[C@H](O)C2)CCN1c1ccc(Cl)c(Cl)c1 [Example 100, (R)-4-(3,4-Dichloro-phenyl)-1-[(R)-2-hydroxy-3-((S)-4-hydroxy-6-aza-spiro[2.5]oct-6-yl)-propyl]-3-methyl-piperazin-2-one] | 6.48
C[C@H]1C(=O)N(C[C@H](O)CN2CCC3(CC3)[C@H](O)C2)CCN1c1ccc(Cl)c(Cl)c1 [Example 101, (S)-4-(3,4-dichloro-phenyl)-1-[(R)-2-hydroxy-3-((S)-4-hydroxy-6-aza-spiro[2.5]oct-6-yl)-propyl]-3-methyl-piperazin-2-one] | 7.14
C[C@H]1C(=O)N(CCCN2CCC3(CC3)[C@H](O)C2)CCN1c1ccc(C(F)(F)F)c(F)c1 [Example 102, (S)-4-(3-Fluoro-4-trifluoromethyl-phenyl)-1-[3-((S)-4-hydroxy-6-aza-spiro[2.5]oct-6-yl)-propyl]-3-methyl-piperazin-2-one] | 8.22
C[C@@H]1C(=O)N(CCCN2CCC3(CC3)[C@H](O)C2)CCN1c1ccc(C(F)(F)F)c(F)c1 [Example 103, (R)-4-(3-fluoro-4-trifluoromethyl-phenyl)-1-[3-((S)-4-hydroxy-6-aza-spiro[2.5]oct-6-yl)-propyl]-3-methyl-piperazin-2-one] | 7.04
C[C@H]1C(=O)N(C[C@H](O)CCN2CCC3(CC3)[C@H](O)C2)CCN1c1ccc(Cl)c(Cl)c1 [Example 104, (S)-4-(3,4-Dichloro-phenyl)-1-[(R)-2-hydroxy-4-((S)-4-hydroxy-6-aza-spiro[2.5]oct-6-yl)-butyl]-3-methyl-piperazin-2-one] | 6.69
C[C@H]1C(=O)N(C[C@@H](O)CCN2CCC3(CC3)[C@H](O)C2)CCN1c1ccc(Cl)c(Cl)c1 [Example 105, (S)-4-(3,4-Dichloro-phenyl)-1-[(S)-2-hydroxy-4-((S)-4-hydroxy-6-aza-spiro[2.5]oct-6-yl)-butyl]-3-methyl-piperazin-2-one] | 7.57
